“Also recorded” adds a separate entry of the source. Some results are limits rather than exact numbers.

One assay deals with U2OS cells. Description: cells. Format: cell-based. The conditions noted are these: Homo sapiens, U2OS, 24 h, read-out: Cytotox EC25 U2OS. The procedure: A cell suspension of 100,000 cells/ml was prepared in assay medium, and white 384-well plates were filled with 30 µl/well cell suspension. Twenty-four hours after seeding, a dilution series of test compound, as well as positive and negative controls, were added to the cells. After 24 h exposure, the medium was removed, and 10 µl of Triton X-100 lysis buffer was added to each well. The luminescent signal was determined in a luminometer by injecting BDS Illuminate Mix and measuring the light emission. The Cytotox CALUX cell line constitutively expresses a high level of luciferase protein; the light emission is therefore proportional to the cell number of live cells, and its decrease can be used as measure of cytotoxicity. The light emission generated by cells exposed to vehicle control was set to 100%, and the luminescence of cells exposed to the positive control toxicant tributyltin acetate [100 µM] was set to 0%. The light output of the cells exposed to different concentrations of test compounds was scaled accordingly.

Assay [1] deals with LUHMES cells. Nature of the assay: NeuriTox test: neurite area and viability, 24 h. Format: cell-based, human. The conditions noted are these: Homo sapiens. The procedure: (§1) The NeuriTox test was performed as previously described (Delp et al. [2018b]; Krug et al. [2013a]; Stiegler et al. [2011]). Briefly, cells differentiated for 48 h were re-seeded into 96-well plates at a density of 100,000 cells/cm^2 in DM without cAMP and GDNF, and treated 1 h after seeding for 24 h. Subsequently, multiple endpoints were determined, e.g., neurite outgrowth (i.e., NeuriTox test), resazurin reduction, intracellular ATP content, gene expression levels from TempO-Seq analysis, and proteasomal activity. For the 120 h exposure scenario, LUHMES cells were differentiated for another 3 days after reseeding before they were treated on day 5 (d5) and d7 by a half medium exchange. Endpoints were determined on d10 of differentiation.
(§2) Image acquisition and analysis was performed as described previously (Krug et al. [2013a]; Schildknecht et al. [2013]; Stiegler et al. [2011]). In brief, cells were live-stained with 1 µg/ml Hoechst H-33342 and 1 µM calcein-AM and image acquisition was done by an automated high content imager (Cellomics, Waltham, MA, USA). Cell viability was determined as ratio of live cells (cell bodies being Calcein- and Hoechst-positive) relative to the total amount of cells (Hoechst-positive cell bodies). Neurite area was calculated by subtracting the somatic area (Hoechst-positive area plus surrounding) from the calcein-positive area.

Assay [2] deals with LUHMES cells. Nature of the assay: Intracellular ATP content after NeuriTox exposure. Format: cell-based. The conditions noted are these: Homo sapiens; NeuriTox exposure scheme, 24 h; read-out: LUHMES 24 h EC25 ATP (converted). The procedure:
as §1
Plates from the NeuriTox test were further used after imaging for determination of alternative endpoints. Intracellular ATP was determined as described earlier (Delp et al. [2019]). In brief, CellTiterGlo 2.0 assay mix (Promega) containing luciferase was added after imaging, and luminescence was recorded. For the determination of resazurin reduction, a 10 × resazurin stock solution was added after imaging to the medium (final resazurin concentration 2 µg/ml) (Delp et al. [2018a]). After 60 min incubation, resazurin fluorescence was recorded (ex: 530 nm, em: 590 nm). Background-corrected data was used for further analysis.

In assay [3] the test system is SH-SY5Y cells. Format: cell-based, human. The conditions noted are these: 120 h exposure, up to 10 µM. The procedure:
The cells are able to form neurites and display several dopaminergic characteristics. […] Differentiation was initiated 24 h later (on day 0, d0) by exchange to 100 µl/well differentiation medium (DMEM:F12, supplemented with 1 µM all-trans retinoic acid (RA), 1 × N2 supplement, 2 mM L-glutamine, 100 µg/ml streptomycin, and 100 U/ml penicillin). All media and supplements were obtained from Gibco (ThermoFisher) except from RA (Sigma).
On d3, 100 µl of fresh differentiation medium were added to the wells. For the 120 h exposure, this medium contained twice the final treatment concentration. On d6, 100 µl from each well were removed, and the procedure was repeated and the cells were analyzed on d8. For the 24 h exposure, cells received an addition of 100 µl pure differentiation medium on d3 and were treated with compounds as described above on d6 for 24 h before analysis. […] The cells were incubated with the stain mixture for 20 min at 37 °C, 5% CO2. After incubation, 130 µL of differentiation medium were added to all the wells to stop further staining of the cells. Images were obtained using ImageXpress® Micro (Molecular Devices). […] The mean neurite length was calculated using the Neurite Outgrowth plug-in in the MetaXpress® Software. Outgrowths were defined as cytoplasmic prolongations with a maximum width of 2 µm (3 pixels). The minimum outgrowth size needed to be logged as significant was defined as 15 µm (23 pixels).

Assay [4] has as its system LUHMES cells. Description: LUHMES 120 h exposure scenario, neurite effects. Format: cell-based, human. The procedure: as §1, §2
For assay [5], the system named is SH-SY5Y cells. Description: Mitochondrial membrane potential (rhodamine 123), KE2 assay. Format: cell-based, human. The conditions noted are these: Homo sapiens, SH-SY5Y, 24 h, read-out: pEC25 MMP (concentration where MMP was reduced by 25%). The procedure:
Cells were plated at a cell density of 29,500 cells/cm^2 and handled as described above for the neurite SH-SY5Y degeneration. On d6 of differentiation, 50% of the medium was replaced by differentiation medium containing 2 µM Rhodamine 123 (ThermoFisher). After 45 min of preloading at 37 °C with 5% CO2 in darkness, the Rhodamine 123 solution was completely removed and cells were carefully washed once with 200 µl DMEM:F12. Subsequently, 50 µl differentiation medium per well were added followed by the addition of 50 µl/well of test compounds in medium. After 24 h of exposure to the test compounds, the nuclei were stained for 30 min with 20 µL of a solution containing 20 µM Hoechst 33342, and the images were then acquired with a 10 × objective lens using the ImageXpress® Micro (Molecular Devices) high content microplate imager. Nuclei were evaluated in the DAPI channel (excitation 377 ± 50 nm, emission 447 ± 60 nm), whereas Rhodamine 123 fluorescence was detected in the FITC channel (excitation 475 ± 34 nm, emission 536 ± 40 nm). Analysis of the Hoechst 33,342 and Rhodamine 123 fluorescence was performed using the MetaXpress® Software (Molecular Devices) with the Transfluor HT plug-in and the parameters nuclei (for Hoechst-33342) and integrated granule intensity (for Rhodamine 123). Mitochondrial membrane potential (MMP) was quantified as the total fluorescence intensity of Rhodamine 123 in relation to the number of Hoechst-stained nuclei.

On to `Cc1nn(C)c(Oc2ccccc2)c1C=NOCc1ccc(C(=O)OC(C)(C)C)cc1` [Fenpyroximate], for which the EC25 is more than 50.1 µM in the assay with U2OS cells; 15.8 µM in the assay with LUHMES cells [1] (NeuriTox exposure scheme, 24 h, read-out: LUHMES 24 h EC25 NA (neurite area) (converted)); 39.8 µM in the assay with LUHMES cells [1] (NeuriTox exposure scheme, 24 h, read-out: LUHMES 24 h EC25 V (viability) (converted)); 15.8 µM in the assay with LUHMES cells [1] (NeuriTox test, neurite outgrowth impairment, LUHMES 24 h, read-out: EC25 KE4 (AO) Neurite toxicity (converted)); 12.6 µM in the assay on LUHMES cells [2]; 0.794 µM with SH-SY5Y cells [5]. The “Neurite degeneration (in words)” value with SH-SY5Y cells [3] is “degeneration of neurites; also recorded: increased neurite degeneration”. The molecule also registered a Reduction in viability with SH-SY5Y cells [3] of more than 25%. Moreover, the “Increase in sensitivity of neurite EC25, 120 h versus 24 h exposure” value in the assay with LUHMES cells [4] is “five-to-eightfold”.
